≈ marks a conversion by molar mass, not a printed value.
How the values were obtained:
[1] = Elution of CSA-138 from contact lenses without bacteria, quantified by scintillation counting; format: physicochemical
Description: To decrease the detection limit for CSA-138, we prepared a radiolabeled version of CSA-138 (CSA-138T2), incorporated it into contact lenses, and quantified its elution from lenses using scintillation counting.
Lenses containing 1% CSA-138 were stored in 0.5 mL phosphate buffered saline (PBS) prior to testing. One set of lenses was autoclaved for 45 min before elution studies were performed. For elution studies, lenses were suspended in 2 ml aliquots of PBS, 10% TSB growth medium, 10% TSB growth medium containing 10^6 CFU of Staphylococcus aureus, or 10% TSB growth medium containing 10^6 CFU of Pseudomonas aeruginosa. Corresponding aliquots were exchanged every 24 h, including bacterial inocula. Samples were removed every 24 h and analyzed for the presence of CSA-138 using scintillation counting. A standard curve was generated to correlate counts per minute to concentration of CSA-138. All experiments were performed in triplicate.

[2] = Elution of CSA-138 from contact lens hydrogel, quantified by LC/MS; format: physicochemical; conditions: lenses with CSA-138 incorporated at 1%; LC/MS detection limit about 2 μg/ml
Description: To better understand the mechanism by which ceragenin compounds can be eluted from a hydrogel to prevent bacterial colonization, we determined the rate at which CSA-138 elutes from a hydrogel suitable for use in contact lenses. To quantify the amount of ceragenin eluting from the hydrogel, we used LC/MS using a mass-labeled internal standard. However, this method only gave detection limits of about 2 μg/ml, and we were able to effectively kill bacteria at constant elution rates below the detection limit.

[3] = tested on: P. aeruginosa; conditions: elution from lenses, inocula 10^6 CFU; cited from earlier work
[4] = tested on: S. aureus; conditions: elution from lenses, inocula 10^6 CFU, consecutive days; cited from earlier work
[5] = tested on: P. aeruginosa; assay: MIC against P. aeruginosa; format: cell-based
[6] = tested on: S. aureus; assay: MIC against S. aureus; format: cell-based

With CCCCCCCCNCCC[C@@H](C)[C@H]1CC[C@H]2[C@@H]3[C@H](OCCCN)C[C@@H]4C[C@H](OCCCN)CC[C@]4(C)[C@H]3C[C@H](OCCCN)[C@]12C [CSA-13] the “elution profile in 10% TSB in PBS” value ([1]; 10% TSB in PBS, compared with PBS (FIG. 5)) was “elution decreased”.
In the case of CCCCCCCCCCCCCNCCC[C@@H](C)[C@H]1CC[C@H]2[C@@H]3[C@H](OCCCN)C[C@@H]4C[C@H](OCCCN)CC[C@]4(C)[C@H]3C[C@H](OCCCN)[C@]12C [CSA-138], the “time until elution fell below detection limits” value [2] is reported as “five”, the “initial amount of material that eluted” value ([1]; lenses autoclaved 45 min before the study, compared with non-autoclaved (FIG. 4)) is reported as “decreased somewhat” and the “elution on the first day” value ([1]; lenses containing 1% CSA-138 in 2 ml PBS, day 1 (FIG. 3)) is reported as “about 2.2 μg/ml”. For the same molecule, the “duration for which colonization is prevented” value [3] was 19 days, the “duration for which colonization is prevented” value [4] was 30 days and the MIC [5] was 1.0 mg/L (≈ 1.34 µM). It also gave an MIC [6] of 0.5 mg/L (≈ 0.669 µM).

— patent publication US10676501B2, “Hydrogel materials incorporating eluting ceragenin compound” (BRIGHAM YOUNG UNIVERSITY, priority 2011, dated 2020)
